Assay results published in PubChem BioAssay (NCI).
Where “and” joins values, the source holds several entries; their conditions need not be identical. Identical values can stand only once.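 Step 1: Grow cells in 96-well plates. Step 2: Expose to compound for 48 hours at 5 concentrations. Step 3: Interpolate endpoints linearly; if unreached, use highest concentration. GI50 = concentration required for 50% inhibition of growth. TGI: total growth inhibition.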

Assays:
Assay in all cases: NCI-60 cell line screen, 48 h
[1] = test system: SW-620 colon
[2] = test system: PC-3 prostate
[3] = test system: MOLT-4 leukemia
[4] = test system: UACC-62 melanoma
[5] = test system: HT29 colon
[6] = test system: OVCAR-8 ovarian
[7] = test system: HOP-92 NSCLC
[8] = test system: T-47D breast
[9] = test system: U251 CNS
[10] = test system: IGROV1 ovarian
[11] = test system: HCC-2998 colon
[12] = test system: NCI-H460 lung
[13] = test system: SK-MEL-5 melanoma
[14] = test system: SK-MEL-28 melanoma
[15] = test system: KM12 colon
[16] = test system: SR leukemia
[17] = test system: MDA-MB-435
[18] = test system: SN12C renal
[19] = test system: MALME-3M melanoma
[20] = test system: OVCAR-3 ovarian
[21] = test system: OVCAR-5 ovarian
[22] = test system: NCI-H226 lung
[23] = test system: SK-OV-3 ovarian
[24] = test system: MDA-N
[25] = test system: 786-0 renal
[26] = test system: NCI-H23 lung
[27] = test system: HS 578T breast
[28] = test system: HCT-15 colon
[29] = test system: SNB-19 CNS
[30] = test system: K-562 leukemia
[31] = test system: SF-295 CNS
[32] = test system: MDA-MB-231 breast
[33] = test system: HOP-62 NSCLC
[34] = test system: BT-549 breast
[35] = test system: NCI/ADR-RES ovarian
[36] = test system: DU-145 prostate
[37] = test system: HL-60(TB) leukemia
[38] = test system: SF-268 CNS
[39] = test system: A498 renal
[40] = test system: ACHN renal
[41] = test system: MCF7 breast
[42] = test system: SF-539 CNS
[43] = test system: M14 melanoma
[44] = test system: UO-31 renal
[45] = test system: A549 NSCLC
[46] = test system: CCRF-CEM leukemia
[47] = test system: HCT-116 colon
[48] = test system: TK-10 renal
[49] = test system: OVCAR-4 ovarian
[50] = test system: COLO 205 colon
[51] = test system: RXF 393 renal
[52] = test system: NCI-H522 lung
[53] = test system: SK-MEL-2 melanoma
[54] = test system: EKVX NSCLC
[55] = test system: RPMI-8226 leukemia
[56] = test system: CAKI-1 renal
[57] = test system: UACC-257 melanoma
[58] = test system: SNB-75 CNS
[59] = test system: LOX IMVI melanoma

## CC1(C)OC[C@H](COCOP2(=O)Oc3ccc4ccccc4c3-c3c(ccc4ccccc34)O2)O1
[1]
  TGI: 29.7 µM
[2]
  TGI: 27.6 µM
[3]
  TGI: 41.4 µM
[4]
  TGI: 46.9 µM
[5]
  TGI: 31.3 µM
[6]
  TGI: 63.3 µM
[7]
  TGI: 28.5 µM
[8]
  TGI: 36.2 µM
[9]
  TGI: 31.9 µM
[10]
  TGI: 72.2 µM
[11]
  TGI: 31.3 µM
[12]
  TGI: 33.3 µM
[13]
  TGI: 73 µM
[14]
  TGI: 27 µM
[15]
  TGI: 29.4 µM
[16]
  TGI: 45.6 µM
[17]
  TGI: 26.5 µM
[18]
  TGI: 30.1 µM
[19]
  TGI: 37.2 µM
[20]
  TGI: 29.6 µM
[21]
  TGI: 33.4 µM
[22]
  TGI: 37.3 µM
[23]
  TGI: 73.3 µM
[24]
  TGI: 26.8 µM
[25]
  TGI: 81.6 µM
[26]
  TGI: 29.6 µM
[27]
  TGI: > 100 µM
[28]
  TGI: 28.6 µM
[29]
  TGI: 34.7 µM
[30]
  TGI: 80.6 µM
[31]
  TGI: 32.2 µM
[32]
  TGI: 31 µM
[33]
  TGI: 40 µM
[34]
  TGI: 31 µM
[35]
  TGI: 36 µM
[36]
  TGI: 32.2 µM
[37]
  TGI: 48.5 µM
[38]
  TGI: 39.1 µM
[39]
  TGI: 31 µM
[40]
  TGI: 37.3 µM
[41]
  TGI: 12.2 µM
[42]
  TGI: 39.8 µM
[43]
  TGI: 32 µM
[44]
  TGI: 32.6 µM
[45]
  TGI: 63.3 µM
[46]
  TGI: 84.8 µM
[47]
  TGI: 28.3 µM
[48]
  TGI: 35.6 µM

## Oc1ccc(Cl)cc1Sc1cc(Cl)ccc1O
[1]
  GI50: 4.02 µM
  TGI: 39.6 µM and 13.8 µM
[2]
  GI50: 2.72 µM
  TGI: 30.1 µM and 9.58 µM
[49]
  GI50: 3.4 µM
  TGI: 22.9 µM and 13.5 µM
[50]
  GI50: 5.93 µM
  TGI: 39.9 µM and 20.2 µM
[3]
  GI50: 3.77 µM
  TGI: > 100 µM and 24.7 µM
[4]
  GI50: 3.24 µM
  TGI: 17.1 µM and 10.7 µM
[5]
  GI50: 3.27 µM
  TGI: 33 µM and 12.6 µM
[51]
  GI50: 4.88 µM
  TGI: 31.1 µM and 17.1 µM
[6]
  GI50: 3.36 µM
  TGI: 42.7 µM and 10.8 µM
[7]
  GI50: 0.421 µM
  TGI: 9.71 µM and 3.43 µM
[8]
  GI50: 2.76 µM
  TGI: 20.8 µM and 9.93 µM
[52]
  GI50: 2.41 µM
  TGI: 13.6 µM and 9.17 µM
[9]
  GI50: 3.31 µM
  TGI: 22.1 µM and 12.2 µM
[10]
  GI50: 3.52 µM
  TGI: 32.5 µM and 9.5 µM
[11]
  GI50: 3.92 µM
  TGI: 14.8 µM
[12]
  GI50: 3.45 µM
  TGI: 24.8 µM and 9.2 µM
[13]
  GI50: 1.92 µM
  TGI: 15.7 µM and 4.06 µM
[14]
  GI50: 4.67 µM
  TGI: 26.3 µM and 15.3 µM
[15]
  GI50: 3.26 µM
  TGI: 31.4 µM and 9.18 µM
[16]
  GI50: 3.53 µM
  TGI: 51.6 µM and 12.2 µM
[17]
  GI50: 2.79 µM
  TGI: 23.9 µM and 9.08 µM
[18]
  GI50: 3.16 µM
  TGI: 27.4 µM and 10.4 µM
[19]
  GI50: 2.41 µM
  TGI: 20.3 µM and 6.81 µM
[53]
  GI50: 2.17 µM
  TGI: 24.2 µM and 5.56 µM
[20]
  GI50: 2.79 µM
  TGI: 15.4 µM and 6.8 µM
[21]
  GI50: 3.12 µM
  TGI: 34.3 µM and 12.7 µM
[22]
  GI50: 4.09 µM
  TGI: 41.9 µM and 19.2 µM
[23]
  GI50: 4.86 µM
  TGI: 43.5 µM and 19.1 µM
[24]
  TGI: 26.1 µM
[25]
  GI50: 11.9 µM
  TGI: 33 µM and 25.2 µM
[26]
  GI50: 2.23 µM
  TGI: 24.2 µM and 7.33 µM
[27]
  TGI: 29.7 µM
[28]
  GI50: 3.19 µM
  TGI: 45.5 µM and 11.4 µM
[54]
  GI50: 2.58 µM
  TGI: 33 µM and 8.19 µM
[55]
  GI50: 1.97 µM
[29]
  GI50: 4.19 µM
  TGI: 57.1 µM and 16 µM
[30]
  GI50: 3.8 µM
  TGI: > 100 µM
[31]
  GI50: 2.37 µM
  TGI: 30.9 µM and 6.43 µM
[56]
  GI50: 6.82 µM
  TGI: 34.8 µM and 29.6 µM
[32]
  GI50: 2.72 µM
  TGI: 31.7 µM and 7.71 µM
[33]
  GI50: 3.04 µM
  TGI: 32.9 µM and 12 µM
[34]
  GI50: 3 µM
  TGI: 33.6 µM and 9.29 µM
[35]
  GI50: 2.48 µM
  TGI: 57.8 µM and 7.47 µM
[36]
  GI50: 3.83 µM
  TGI: 30.5 µM and 13.7 µM
[37]
  GI50: 3.19 µM
  TGI: 37.3 µM and 7.52 µM
[38]
  GI50: 3.51 µM
  TGI: 31.9 µM and 13.4 µM
[57]
  GI50: 2.83 µM
  TGI: 19.3 µM and 6.91 µM
[58]
  GI50: 2.94 µM
  TGI: 36.4 µM and 10.6 µM
[39]
  GI50: 2.73 µM
  TGI: 24.2 µM and 7.72 µM
[40]
  GI50: 2.72 µM
  TGI: 23.1 µM and 8.27 µM
[59]
  GI50: 2.63 µM
  TGI: 24 µM and 8.42 µM
[41]
  GI50: 3.33 µM
  TGI: 34.5 µM and 10.7 µM
[42]
  GI50: 3.14 µM
  TGI: 37.2 µM and 11.2 µM
[43]
  GI50: 3.83 µM
  TGI: 26 µM and 12.7 µM
[44]
  GI50: 2.24 µM
  TGI: 20.1 µM and 6.24 µM
[45]
  GI50: 3.91 µM
  TGI: 58.6 µM and 13.7 µM
[46]
  GI50: 2.59 µM
  TGI: 55 µM and 12.8 µM
[47]
  GI50: 2.79 µM
  TGI: 19.7 µM and 7.21 µM
[48]
  GI50: 8.02 µM
  TGI: 31.3 µM and 31.1 µM
